The record followed here is PubChem BioAssay AID1996.

Converted amounts (≈) assume the structure as drawn.

The kinetic solubility is solubility judged after dilution from a stock solution rather than from solid.

The conditions of this data set: buffer; pH 7.4; 200.0 µM.
Take `CCOc1ncccc1C(=O)NCC(c1ccco1)N1CCCCC1` (stereo not given): the solubility (kinetic) was greater than 51.5 µg/mL. With `CCSc1ncc(Cl)c(C(=O)Nc2ccccc2F)n1` the figure was 0.5 µg/mL (≈ 1.6 µM); with `O=C(CS(=O)(=O)Cc1ccccc1)Nc1ccc2c(c1)OCO2`, 15.7 µg/mL (≈ 47.1 µM); with `CCOc1ccc(/C=C\c2nc(O)c([N+](=O)[O-])c(=O)[nH]2)cc1OCC`, 29 µg/mL (≈ 83.5 µM). Under `O=C(COC(=O)Cc1ccc([N+](=O)[O-])cc1)NC1CCCCCC1` stands greater than 50.2 µg/mL. For the molecule `O=C1c2ccccc2NC(c2ccccc2O)N1O` (stereo not given), the solubility (kinetic) was greater than 38.4 µg/mL.

With `CCOc1ccc(N2CC(C(=O)N3CCCCCC3)CC2=O)cc1` (stereo not given), the solubility (kinetic) was greater than 49.6 µg/mL. With `CCOC(=O)c1cnn(C)c1NC(=O)c1ccc(Cl)cc1Cl` the figure was greater than 51.3 µg/mL. With `OC(CN1CCN(c2ccc(C(F)(F)F)cn2)CC1)c1ccccc1` (stereo not given) the figure was 1.8 µg/mL (≈ 5.12 µM); with `COc1cccc(C(=O)O/N=C(\N)c2ccccn2)c1`, greater than 40.7 µg/mL; with `CCN1CCN(CC(c2ccccc2)c2ccccc2)CC1`, 29.1 µg/mL (≈ 98.8 µM). With `CCOc1c(O)ccc(/C=C2\SC(=S)NC2=O)c1[N+](=O)[O-]` the figure was 6.8 µg/mL (≈ 20.8 µM); with `Cc1nc(Oc2ccccc2)c2ccsc2n1`, 20 µg/mL (≈ 82.5 µM). The molecule `O=C(Nc1ccccc1)OCCCCCOC(=O)Nc1ccccc1` displayed a kinetic solubility of less than 0.4 µg/mL. Under `O=C(Nc1ccc(F)cc1)NC1CCN(Cc2c(F)cccc2Cl)CC1` stands 2.8 µg/mL (≈ 7.37 µM). Under `O=CNCc1nc2ccccc2n1CCCc1ccccc1` stands greater than 44 µg/mL; under `O=C(N[C@H]1CC1c1ccccc1)c1ccc([N+](=O)[O-])cc1` (stereo not given in full), 1.6 µg/mL (≈ 5.67 µM). As for `NC(=O)C1(C(N)=O)OC1c1ccccc1` (stereo not given), the solubility (kinetic) was greater than 30.9 µg/mL.

Molecule `Cc1cc(=O)c(C(=O)O)nn1-c1ccccc1Cl` displayed a solubility (kinetic) greater than 39.7 µg/mL. With `Cc1ccc(F)c(N=Cc2c(O)c3ccccc3oc2=O)c1` the figure was 1.8 µg/mL (≈ 6.05 µM); with `Cc1cc(NC(=S)Nc2cccnc2)ccc1Br`, 40.7 µg/mL (≈ 126 µM); with `O=C(CC12CC3CC(CC(C3)C1)C2)Nc1c(F)cccc1F`, less than 0.7 µg/mL.

Molecule `O=C(c1cn(Cc2ccccc2F)c2ncccc12)C(F)(F)F` showed a kinetic solubility of 2.8 µg/mL (≈ 8.69 µM). Under `O=C(COc1cccnc1[N+](=O)[O-])c1ccc(Cl)s1` stands 37.2 µg/mL (≈ 125 µM); under `O=S(=O)(Nc1cccc(CO)c1)c1cccs1`, greater than 40.4 µg/mL; under `O=C(Nc1cccnc1N1CCOCC1)c1cccs1`, greater than 43.4 µg/mL. Under `CCOC(=O)CSc1nc(C)cc(C)c1C(N)=O` stands 35.6 µg/mL (≈ 133 µM). Turning to `Fc1ccc(-c2csc(-c3ccncc3)n2)cc1`, the solubility (kinetic) turned out to be 1.3 µg/mL (≈ 5.07 µM). With `COc1ccc(OC)c(NC(=O)COC(=O)CCc2nc3ccccc3c(=O)[nH]2)c1` the figure was greater than 61.7 µg/mL. With `Cn1c(=NC(=O)c2cccc([N+](=O)[O-])c2)sc2ccccc21` the figure was less than 0.2 µg/mL; with `COc1ccc(CC(=O)N2CCN(c3ccccc3)CC2)cc1OC`, 49.9 µg/mL (≈ 147 µM).

The molecule `O=C(Cc1ccc(F)cc1)N1CCN(c2ccc(F)cc2)CC1` showed a solubility (kinetic) greater than 47.5 µg/mL. With `CCN(C(=O)C12CC3CC(CC(C3)C1)C2)C1CCS(=O)(=O)C1` (stereo not given) the figure was greater than 48.8 µg/mL; with `COc1ccccc1CNC(=O)c1ccc(Cl)c(S(=O)(=O)N2CCCC2)c1`, 17.9 µg/mL (≈ 43.8 µM); with `CC(C)(C)c1ccc(C(=O)N2CCCC2)s1`, greater than 35.6 µg/mL. Molecule `CC(C)c1ccc(NC(=S)NC2CC3C=CC2C3)cc1` (stereo not given) gave a solubility (kinetic) of 1.4 µg/mL (≈ 4.89 µM). The molecule `Cc1nn(C)c(C)c1NS(=O)(=O)c1ccc(Cl)cc1` yielded a solubility (kinetic) greater than 45 µg/mL. `Cn1c(=O)oc2cc(S(=O)(=O)Nc3ccc(O)cc3)ccc21` yielded a solubility (kinetic) greater than 48 µg/mL. `Cc1cccc(C(C)C)c1NC(=O)c1cc2ccccc2o1` gave a solubility (kinetic) of 6.1 µg/mL (≈ 20.8 µM). With `CC1(C)Cc2cccc(C(=O)Nc3ccc(Cl)cc3)c2O1` the figure was 2.4 µg/mL (≈ 7.95 µM); with `Cc1occc1C(=O)O/N=C(\N)c1ccccc1`, 36.1 µg/mL (≈ 148 µM). Under `Cc1ccccc1C(=O)Nc1ccnc(-c2ccncc2)n1` stands 0.5 µg/mL (≈ 1.72 µM). The molecule `COc1ccc(N2Cc3ccccc3C2=O)cc1` returned a solubility (kinetic) of 12.8 µg/mL (≈ 53.5 µM). The molecule `COc1cccc(C(=O)NCC(=O)OCC(=O)NC2CCCCC2)c1` gave a solubility (kinetic) greater than 52.3 µg/mL. With `Cc1cccc(CC2CC(=O)N(c3nc4ccccc4s3)C2=O)c1` (stereo not given) the figure was 16.5 µg/mL (≈ 49 µM). With `Cc1cc(C(=O)NC2CCC(O)CC2)c(C)o1` (stereo not given) the figure was greater than 35.6 µg/mL. With `c1ccc(N2CCN(Cc3nc4ccccc4[nH]3)CC2)nc1` the figure was 41.3 µg/mL (≈ 141 µM). For the molecule `CCOc1ccc(S(=O)(=O)NCC2CCCO2)c2ccccc12` (stereo not given), the kinetic solubility amounted to 42.2 µg/mL (≈ 126 µM). With `N#Cc1ccc(C(=O)CSc2n[nH]c(=O)n2-c2cccnc2)cc1` the figure was greater than 50.6 µg/mL. As to `Cc1nc2ccc(NS(=O)(=O)c3cccc([N+](=O)[O-])c3)cc2s1`, the solubility (kinetic) is greater than 52.4 µg/mL. Under `COc1ccc(C(=O)N2CCC3(CC2)NCCc2[nH]cnc23)cc1` stands greater than 49 µg/mL.

The molecule `CCCC(=O)NC(=S)Nc1cc(-c2nc3ncccc3o2)ccc1C` gave a solubility (kinetic) of 0.5 µg/mL (≈ 1.41 µM). Under `Cc1cccc(N2C(=O)C3C4C=CC(CC4)C3C2=O)c1` (stereo not given) stands 33.5 µg/mL (≈ 125 µM). The molecule `CCOc1ccccc1C(=O)Nc1cccc2ccccc12` returned a kinetic solubility of less than 0.6 µg/mL. Under `O=C(Cc1ccccc1)NCc1ccncc1` stands 28.2 µg/mL (≈ 125 µM). Under `O=C(/C=C/c1ccco1)c1cccnc1` stands 23.8 µg/mL (≈ 119 µM); under `O=C(C1CCCCC1)N1CCc2ccccc21`, 27.2 µg/mL (≈ 119 µM).

For the molecule `O=C(Nc1cc2c3c(c1)CC(=O)N3CCC2)c1c(F)cccc1F`, the kinetic solubility came out at 9.6 µg/mL (≈ 29.2 µM).

`NC(=O)CSc1nc(C2CC2)nc2sc3c(c12)CCCC3`: the kinetic solubility was less than 0.2 µg/mL. Under `O=C(Nc1ccc(C(=O)N2CCCc3ccccc32)cc1)c1cccs1` stands less than 0.4 µg/mL. With `CCOCCCNC(=O)C1CC(=O)N(CCc2ccc(C)cc2)C1` (stereo not given) the figure was greater than 49.9 µg/mL. With `CCN(Cc1ccccc1)C(=O)c1[nH]c2ccc(OC)cc2c1C` the figure was 31.2 µg/mL (≈ 96.8 µM); with `O=C(O)c1nccnc1C(=O)NCc1csc2ccc(Cl)cc12`, 46.4 µg/mL (≈ 133 µM).

`CCSc1nc2ccc(C)cc2cc1C#N`: the solubility (kinetic) is less than 0.2 µg/mL. Under `CCOC(=O)C1CCN(Cc2ccc(O)c3ncccc23)CC1` stands 1.6 µg/mL (≈ 5.09 µM). As to `Cn1c(=O)c2c([nH]c(=O)n2C)n(Cc2ccccc2)c1=O`, the solubility (kinetic) is greater than 42.9 µg/mL.

In turn, `Cl.O=C(OCCN1CCCCC1)c1cccc(Cl)c1` returned a solubility (kinetic) greater than 45.6 µg/mL. With `COc1ccc(/C=C/C(=O)Nc2c(C(=O)O)[nH]c3ccccc23)cc1OC` the figure was greater than 55 µg/mL; with `COc1ccccc1C(=O)NCCOc1ccc(C(C)(C)C)cc1`, 2.7 µg/mL (≈ 8.25 µM); with `COc1ccc(NC(=O)COC(=O)CCNC(=O)c2ccco2)cc1Cl`, greater than 57.1 µg/mL. With `O=C(O)CC(NC(=O)C1CCCCC1)c1ccc(OC2CCCC2)cc1` (stereo not given) the figure was 53.4 µg/mL (≈ 149 µM); with `O=C(CSc1ncnc2sccc12)Nc1ccccc1F`, 5.9 µg/mL (≈ 18.5 µM). Under `O=S(=O)(c1ccc2c(c1)CCCC2)N1CCNCC1` stands greater than 42.1 µg/mL.

The molecule `CCOC(OCC)c1ccc(/C=C\c2nccc(N)n2)cc1` displayed a solubility (kinetic) of 13.7 µg/mL (≈ 45.8 µM). Molecule `CC(=O)N1CCN(c2ccccc2NC(=O)c2cccs2)CC1` yielded a kinetic solubility greater than 49.4 µg/mL. Under `O=C(c1ccccc1)C1CCN(C(=O)c2ccc(Cl)cc2)CC1` stands greater than 49.2 µg/mL; under `O=c1[nH]c(=O)n(C2CCCCCC2)c(O)c1C=NCc1cccnc1`, 8.2 µg/mL (≈ 23.9 µM); under `Cc1nc(SCc2ccc(C(=O)O)cc2)c2c(C)c(C)sc2n1`, 49.5 µg/mL (≈ 144 µM). Under `CC(=O)CC(C)(C)NC(C)=S` stands greater than 26 µg/mL.

The molecule `CC(Cc1c[nH]c2ccccc12)C(=O)NCc1ccco1` (stereo not given) displayed a solubility (kinetic) greater than 42.4 µg/mL.

As for `CC1CCCCC1NC(=O)COC(=O)c1cc(=O)[nH]c2ccccc12` (stereo not given), the solubility (kinetic) was 6.8 µg/mL (≈ 19.9 µM). Under `COc1cccc(NC(=O)NCCCCc2ccccc2)c1` stands 12.9 µg/mL (≈ 43.2 µM); under `CC(N)C12CC3CC(CC(C3)C1)C2.Cl` (stereo not given), greater than 32.4 µg/mL.

Molecule `CSc1ccc(Cl)c(C(=O)OCC(=O)N(C)CCC#N)c1` showed a solubility (kinetic) greater than 49 µg/mL.

`CC(=O)N1CCN(C(=O)CNC(=O)c2ccc(C)s2)CC1` had a solubility (kinetic) greater than 46.4 µg/mL.

In turn, `O=C(NCc1ccncc1)C(=O)NC1CC1` had a solubility (kinetic) greater than 32.9 µg/mL. With `O=C(Nn1cnc2ccccc2c1=O)c1c(F)cccc1F` the figure was greater than 45.2 µg/mL; with `O=C(Cc1cccc(C(F)(F)F)c1)N1CCCC1`, greater than 38.6 µg/mL. The molecule `COc1ccc2nc(C)cc(Nc3cccc(C(=O)O)c3)c2c1` showed a kinetic solubility of 3.3 µg/mL (≈ 10.7 µM). With `COC(=O)c1ccc(C(=O)N=c2sccn2C)cc1` the figure was 13.9 µg/mL (≈ 50.3 µM); with `O=C(/C=C/c1ccc(Br)o1)Nc1nccs1`, 4.3 µg/mL (≈ 14.4 µM); with `CC1(C)C(=O)Nc2ccccc2N1C(=O)COC(=O)c1ccc([N+](=O)[O-])o1`, 12.1 µg/mL (≈ 32.4 µM). With `O=C(/C=C/Nc1ccc(S(=O)(=O)Nc2ncccn2)cc1)c1ccc2ccccc2c1` the figure was 2 µg/mL (≈ 4.65 µM). With `CCn1c(=O)c2ccccc2n2c(SCC(N)=O)nnc12` the figure was greater than 45.5 µg/mL; with `O=C1/C(=C\c2ccc(Cl)cc2Cl)N2CCC1CC2`, 8.9 µg/mL (≈ 31.5 µM).

In turn, `CC1(C)C(CC2OCC(CN3CCCCC3)O2)[C@H]2CC[C@@H]1C2` (stereo not given in full) returned a solubility (kinetic) of 25.9 µg/mL (≈ 84.2 µM). With `Cc1cc(NC(=O)CSc2ncccc2C(=O)O)no1` the figure was greater than 44 µg/mL; with `Cc1ccc(NC(=O)Nc2cccc(C)n2)c(C)c1`, less than 0.2 µg/mL. Under `CN1CCN(c2ccc(CNS(=O)(=O)c3ccsc3)cc2)CC1` stands 22.7 µg/mL (≈ 64.6 µM); under `CC(C)c1ccc(NC2=CC(=O)CC(C)(C)C2)cc1`, 2.6 µg/mL (≈ 10.1 µM); under `Clc1nc(N2CCOCC2)ncc1Br`, greater than 41.8 µg/mL. With `Cc1ccc(-c2noc(CCCC(=O)NC3CCCCC3)n2)cc1` the figure was 7.8 µg/mL (≈ 23.8 µM); with `O=C(C[n+]1ccccc1)Nc1ccc(Oc2ccccc2)cc1.[Cl-]`, greater than 51.1 µg/mL.

Regarding `O=C(NCc1ncc(C(F)(F)F)cc1Cl)Nc1ccccc1`, the kinetic solubility is 3.1 µg/mL (≈ 9.4 µM). Molecule `COc1ccc(NC(=O)CS(=O)(=O)c2ccc(F)cc2)cc1` had a kinetic solubility of 46.9 µg/mL (≈ 145 µM).
